pIC50: −log10 of the molar value. “And” between values parts separate entries of the source, which are not always exact repeats. Identical values can stand only once.
Tested on: 883617-216-R-J1-PDC complex spheroids, growth, % test/control
Experiment: Anticancer human tumor 883617-216-R-J1-PDC patient-derived bladder carcinoma cell line growth inhibition [AhR]
Conditions: for viability, T/C: stronger effect = lower value
In short: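 Agents were dosed in half-log steps down from roughly clinical Cmax, or from 10 microM where Cmax was unknown, alone and with AhR antagonists. Read-out: percent test/control growth of tumor spheroids containing HUVEC and MSC stromal cells.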

[1] = curve of first compound, second compound 0.1 µM
[2] = curve of first compound, second compound 0.316 µM
[3] = curve of first compound, second compound 1 µM
[4] = curve of first compound, second compound 3.16 µM
[5] = curve of first compound, second compound 10 µM
[6] = second compound 0.1 µM, first compound 0.0316 µM
[7] = second compound 0.1 µM, first compound 0.1 µM
[8] = second compound 0.1 µM, first compound 0.316 µM
[9] = second compound 0.1 µM, first compound 1 µM
[10] = second compound 0.1 µM, first compound 3.16 µM
[11] = second compound 0.1 µM, first compound 10 µM
[12] = second compound 0.316 µM, first compound 0.0316 µM
[13] = second compound 0.316 µM, first compound 0.1 µM
[14] = second compound 0.316 µM, first compound 0.316 µM
[15] = second compound 0.316 µM, first compound 1 µM
[16] = second compound 0.316 µM, first compound 3.16 µM
[17] = second compound 0.316 µM, first compound 10 µM
[18] = second compound 1 µM, first compound 0.0316 µM
[19] = second compound 1 µM, first compound 0.1 µM
[20] = second compound 1 µM, first compound 0.316 µM
[21] = second compound 1 µM, first compound 1 µM
[22] = second compound 1 µM, first compound 3.16 µM
[23] = second compound 1 µM, first compound 10 µM
[24] = second compound 3.16 µM, first compound 0.0316 µM
[25] = second compound 3.16 µM, first compound 0.1 µM
[26] = second compound 3.16 µM, first compound 0.316 µM
[27] = second compound 3.16 µM, first compound 1 µM
[28] = second compound 3.16 µM, first compound 3.16 µM
[29] = second compound 3.16 µM, first compound 10 µM
[30] = second compound 10 µM, first compound 0.0316 µM
[31] = second compound 10 µM, first compound 0.1 µM
[32] = second compound 10 µM, first compound 0.316 µM
[33] = second compound 10 µM, first compound 1 µM
[34] = second compound 10 µM, first compound 3.16 µM
[35] = second compound 10 µM, first compound 10 µM
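Also: exposure lasted 7 days after dosing on day 3 of spheroid growth.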

For `CCN(c1cc(-c2ccc(CN3CCOCC3)cc2)cc(C(=O)NCc2c(C)cc(C)[nH]c2=O)c1C)C1CCOCC1` + Cc1cncc(-c2nc(NCCc3c[nH]c4ccccc34)c3ncn(C(C)C)c3n2)c1, the pIC50 [1] was under 5.52, the pIC50 [2] was under 5.52 and the pIC50 [3] was under 5.52. The pIC50 [4] was under 5.52, the pIC50 [5] was over 8.02 and the viability, T/C (second compound 0.1 µM, first compound 0.00949 µM) was 93.3%. For the same compound, the viability, T/C (second compound 0.1 µM, first compound 0.03 µM) was 109%, the viability, T/C (second compound 0.1 µM, first compound 0.0949 µM) was 94.1% and the viability, T/C (second compound 0.1 µM, first compound 0.3 µM) was 96.6%. It also gave a viability, T/C (second compound 0.1 µM, first compound 0.949 µM) of 98.2%, a viability, T/C (second compound 0.1 µM, first compound 3 µM) of 91.6% and a viability, T/C (second compound 0.316 µM, first compound 0.00949 µM) of 103%. It also gave a viability, T/C (second compound 0.316 µM, first compound 0.03 µM) of 94.4%, a viability, T/C (second compound 0.316 µM, first compound 0.0949 µM) of 97.1% and a viability, T/C (second compound 0.316 µM, first compound 0.3 µM) of 96.2%. It also gave a viability, T/C (second compound 0.316 µM, first compound 0.949 µM) of 98.6%, a viability, T/C (second compound 0.316 µM, first compound 3 µM) of 96.4% and a viability, T/C (second compound 1 µM, first compound 0.00949 µM) of 103%. The viability, T/C (second compound 1 µM, first compound 0.03 µM) was 102%, the viability, T/C (second compound 1 µM, first compound 0.0949 µM) was 110% and the viability, T/C (second compound 1 µM, first compound 0.3 µM) was 105%. For the same compound, the viability, T/C (second compound 1 µM, first compound 0.949 µM) was 97.8%, the viability, T/C (second compound 1 µM, first compound 3 µM) was 107% and the viability, T/C (second compound 3.16 µM, first compound 0.00949 µM) was 93.7%. The viability, T/C (second compound 3.16 µM, first compound 0.03 µM) was 102%, the viability, T/C (second compound 3.16 µM, first compound 0.0949 µM) was 112% and the viability, T/C (second compound 3.16 µM, first compound 0.3 µM) was 96.5%. For the same compound, the viability, T/C (second compound 3.16 µM, first compound 0.949 µM) was 107%, the viability, T/C (second compound 3.16 µM, first compound 3 µM) was 110% and the viability, T/C (second compound 10 µM, first compound 0.00949 µM) was 52.3%. It also gave a viability, T/C (second compound 10 µM, first compound 0.03 µM) of 46.9%, a viability, T/C (second compound 10 µM, first compound 0.0949 µM) of 47.2% and a viability, T/C (second compound 10 µM, first compound 0.3 µM) of 43.2%. For the same compound, the viability, T/C (second compound 10 µM, first compound 0.949 µM) was 27.3% and the viability, T/C (second compound 10 µM, first compound 3 µM) was 15.5%.
For `CC1COCCN1c1cc(C2(S(C)(=N)=O)CC2)nc(-c2ccnc3[nH]ccc23)n1` (configuration not stated), the viability, T/C (compound 0.0316 µM) was 99.7% and 109% and 114%, the viability, T/C (compound 0.1 µM) was 97.4% and 97.5% and 101% and the viability, T/C (compound 0.316 µM) was 106% and 101% and 71.2%. For the same compound, the viability, T/C (compound 1 µM) was 88.5% and 99.6% and 63.6%, the viability, T/C (compound 3.16 µM) was 76% and 80.4% and 89.1% and the viability, T/C (compound 10 µM) was 48.9% and 56.1% and 102%. The pIC50 (curve of compound) was 5.02 and < 5.00.
Compound `Nc1ccccc1NC(=O)c1ccc(CNC(=O)OCc2cccnc2)cc1` + Cc1cncc(-c2nc(NCCc3c[nH]c4ccccc34)c3ncn(C(C)C)c3n2)c1 has a pIC50 [1] of 6.22, a pIC50 [2] of 6.18 and a pIC50 [3] of 6.08. It also gave a pIC50 [4] of 5.98, a pIC50 [5] of over 7.50 and a viability, T/C [6] of 81.2%. The viability, T/C [7] was 78.8%, the viability, T/C [8] was 66.7% and the viability, T/C [9] was 37%. It also gave a viability, T/C [10] of 11.3%, a viability, T/C [11] of 1.5% and a viability, T/C [12] of 88.1%. It also gave a viability, T/C [13] of 79.7%, a viability, T/C [14] of 68.5% and a viability, T/C [15] of 40.1%. The viability, T/C [16] was 14.4%, the viability, T/C [17] was 0.94% and the viability, T/C [18] was 96.6%. The viability, T/C [19] was 93.7%, the viability, T/C [20] was 77.8% and the viability, T/C [21] was 44.6%. It also gave a viability, T/C [22] of 14.1%, a viability, T/C [23] of 0.83% and a viability, T/C [24] of 109%. It also gave a viability, T/C [25] of 105%, a viability, T/C [26] of 83.2% and a viability, T/C [27] of 51.1%. It also gave a viability, T/C [28] of 18.9%, a viability, T/C [29] of 0.37% and a viability, T/C [30] of 41.6%. The viability, T/C [31] was 42.5%, the viability, T/C [32] was 35.8% and the viability, T/C [33] was 21.3%. For the same compound, the viability, T/C [34] was 11.1% and the viability, T/C [35] was 0.35%.
`O=C(C=Cc1cccc(S(=O)(=O)Nc2ccccc2)c1)NO` + Cc1cncc(-c2nc(NCCc3c[nH]c4ccccc34)c3ncn(C(C)C)c3n2)c1 gave a pIC50 [1] of 5.76, a pIC50 [2] of 5.78 and a pIC50 [3] of 5.71. The pIC50 [4] was 5.72, the pIC50 [5] was over 7.50 and the viability, T/C [6] was 92.5%. For the same compound, the viability, T/C [7] was 93.9%, the viability, T/C [8] was 83% and the viability, T/C [9] was 60.6%. The viability, T/C [10] was 37%, the viability, T/C [11] was 3.56% and the viability, T/C [12] was 88.5%. The viability, T/C [13] was 86.4%, the viability, T/C [14] was 84.4% and the viability, T/C [15] was 60.3%. It also gave a viability, T/C [16] of 34.5%, a viability, T/C [17] of 4.17% and a viability, T/C [18] of 97.1%. The viability, T/C [19] was 101%, the viability, T/C [20] was 96.4% and the viability, T/C [21] was 63.5%. It also gave a viability, T/C [22] of 39.1%, a viability, T/C [23] of 2.44% and a viability, T/C [24] of 123%. For the same compound, the viability, T/C [25] was 114%, the viability, T/C [26] was 94.8% and the viability, T/C [27] was 69.8%. It also gave a viability, T/C [28] of 34.6%, a viability, T/C [29] of 2.66% and a viability, T/C [30] of 52.4%. For the same compound, the viability, T/C [31] was 43.2%, the viability, T/C [32] was 34.7% and the viability, T/C [33] was 42.7%. The viability, T/C [34] was 22% and the viability, T/C [35] was 1.42%.
`CC1(C)CCC(CN2CCN(c3ccc(C(=O)NS(=O)(=O)c4ccc(NCC5CCOCC5)c([N+](=O)[O-])c4)c(Oc4cnc5[nH]ccc5c4)c3)CC2)=C(c2ccc(Cl)cc2)C1` + Cc1cncc(-c2nc(NCCc3c[nH]c4ccccc34)c3ncn(C(C)C)c3n2)c1 gave a pIC50 [1] of 5.21, a pIC50 [2] of 5.20 and a pIC50 [3] of 5.23. The pIC50 [4] was 5.08, the pIC50 [5] was under 5.00 and the viability, T/C [6] was 85.7%. The viability, T/C [7] was 88.8%, the viability, T/C [8] was 90% and the viability, T/C [9] was 78.6%. It also gave a viability, T/C [10] of 80.4%, a viability, T/C [11] of 28.5% and a viability, T/C [12] of 97.3%. It also gave a viability, T/C [13] of 99.2%, a viability, T/C [14] of 94.2% and a viability, T/C [15] of 88.5%. It also gave a viability, T/C [16] of 82.2%, a viability, T/C [17] of 29% and a viability, T/C [18] of 86.5%. The viability, T/C [19] was 89.7%, the viability, T/C [20] was 87.7% and the viability, T/C [21] was 84.5%. For the same compound, the viability, T/C [22] was 82.5%, the viability, T/C [23] was 23% and the viability, T/C [24] was 99.1%. The viability, T/C [25] was 108%, the viability, T/C [26] was 115% and the viability, T/C [27] was 97.2%. The viability, T/C [28] was 106%, the viability, T/C [29] was 38.9% and the viability, T/C [30] was 49.4%. For the same compound, the viability, T/C [31] was 52.6%, the viability, T/C [32] was 57.1% and the viability, T/C [33] was 61.4%. The viability, T/C [34] was 72% and the viability, T/C [35] was 37.3%.
In the case of `Nc1ncn(C2CC(O)C(CO)O2)c(=O)n1` (configuration not stated) + Cc1ccccc1N=Nc1ccc(NC(=O)c2ccnn2C)c(C)c1, the pIC50 [1] was under 6.00, the pIC50 [2] was under 6.00 and the pIC50 [3] was under 6.00. The pIC50 [4] was under 6.00, the pIC50 [5] was under 6.00 and the viability, T/C (second compound 0.1 µM, first compound 0.00316 µM) was 89.3%. For the same compound, the viability, T/C (second compound 0.1 µM, first compound 0.01 µM) was 94.7%, the viability, T/C [6] was 83.6% and the viability, T/C [7] was 82.8%. The viability, T/C [8] was 75.5%, the viability, T/C [9] was 73.1% and the viability, T/C (second compound 0.316 µM, first compound 0.00316 µM) was 82.9%. For the same compound, the viability, T/C (second compound 0.316 µM, first compound 0.01 µM) was 83.5%, the viability, T/C [12] was 87.8% and the viability, T/C [13] was 80.1%. For the same compound, the viability, T/C [14] was 78.8%, the viability, T/C [15] was 76.6% and the viability, T/C (second compound 1 µM, first compound 0.00316 µM) was 79.9%. It also gave a viability, T/C (second compound 1 µM, first compound 0.01 µM) of 88.1%, a viability, T/C [18] of 101% and a viability, T/C [19] of 77.9%. For the same compound, the viability, T/C [20] was 67.6%, the viability, T/C [21] was 77.1% and the viability, T/C (second compound 3.16 µM, first compound 0.00316 µM) was 71.1%. For the same compound, the viability, T/C (second compound 3.16 µM, first compound 0.01 µM) was 84.2%, the viability, T/C [24] was 75.8% and the viability, T/C [25] was 72.8%. It also gave a viability, T/C [26] of 79.6%, a viability, T/C [27] of 81.2% and a viability, T/C (second compound 10 µM, first compound 0.00316 µM) of 84.7%. For the same compound, the viability, T/C (second compound 10 µM, first compound 0.01 µM) was 79.2%, the viability, T/C [30] was 74.3% and the viability, T/C [31] was 77.7%. For the same compound, the viability, T/C [32] was 74.2% and the viability, T/C [33] was 77.9%.
